Where two headings read alike, the source gives them in different places.
Key:
[1] = Food and proton pump inhibitor crossover PK study in healthy subjects; type: in vivo, human; conditions: 30 mg oral; for Cmax / AUC(0-inf) / half-life / Tmax: human; for Cmax / AUC(0-inf): po, 30 mg; for AUC(0-inf): read-out: AUC0−inf Mean; for half-life: read-out: T1/2 Mean (converted); for Tmax: read-out: Tmax Median
Experimental: In an open-label, randomized, 3-period crossover study, healthy subjects received 30 mg cerdulatinib orally. The 3-period treatments were fasted, high-fat diet, and proton pump inhibitor (PPI) esomaprazole, with 14-day washout between treatments. Blood samples were collected up to 72 hours after cerdulatinib treatment. PK endpoints were area under the curve (AUC), maximum concentration (Cmax), Time to Cmax (Tmax), and half-live (T1/2).

[2] = tested on: serum markers of inflammation; assay: Serum protein markers of inflammation (multiplexed luminex); type: in vivo, human
Experimental: Whole blood for isolation of serum was collected prior to dosing on days 1, 8, and 28 to measure changes in protein markers of inflammation and immune function. Serum samples were snap-frozen on dry ice immediately following its separation and stored at −80° C. Samples were analyzed using a multiplexed luminex-based technology (Myriad RBM, Austin, Tex.), utilizing the companies ImmunoMap (40 analytes) and InflammationMap (45 analytes) platforms. Serum from healthy donors was used as control.
The data were analyzed using the statistical language R and the accessory packages ggplot2 (Wickham, H., Elegant Graphics for Data Analysis. 2016: Springer-Verlag) and drc (Ritz, C., et al., Dose-Response Analysis Using R. PLoS One, 2015. 10(12): p. e0146021). For cell signaling assays, percent inhibition was determined by normalizing the receptor-induced phosphorylation events mean fluorescent intensity (MFI) to that of pre-dose receptor-induced MFI. The resulting relative activities were analyzed by nonlinear regression to a 3-parameter log-logistic function with an upper and lower limit set at 100 and 0%. For the analysis of immune and inflammation markers in serum, the varying concentration units were converted to a common scale in pg/mL. Values below and in excess of the detection limit were replaced by half the detection limit and the upper limit, respectively. For missing values, the median value for each marker from the treatment group was imputed. Statistically significant differences between the healthy and patient serum marker at all cycles (Cycle 1 Day 1, Cycle 1 Day 8, and Cycle 2 Day 1) were detected by paired t test. Dimension reduction of expression of the biomarker table in healthy and patient serum was performed using linear discriminant analysis, as is implemented in R. For the biomarkers and tumor response, reduction in biomarker after treatment was normalized to that before treatment and correlated to the maximal tumor response (growth or reduction), representing the ratio of minimal tumor area following treatment and tumor area before treatment. The significance of the relation between maximum tumor response and change in a specific biomarker was evaluated using Spearman-Rank-correlation and p value.

[3] = tested on: SYK-mediated BCR signaling; assay: Whole blood BCR signaling assay after oral dosing (pSYK Y525/526, pERK Y204, pAKT S473); type: cell-based, human; conditions: for IC50: Homo sapiens
Experimental: For PD assessments, serial blood samples were drawn into lithium-heparin vacutainer tubes on Day 1 prior to dosing and again at 0.5, 1, 2, and 4 hours post-dose; on Day 8 at pre-dose and 2 hours post-dose; and Day 28 prior to dosing. Multiple assays were performed using the Day 1 and Day 8 PD samples. SYK-mediated BCR signaling in whole blood was measured prior to and post-dosing by stimulating 100 μL whole blood with 2 μL of anti-human IgD (IgG fraction) and 10 μg anti-human IgM for 10 minutes at 37° C., measuring the induction of pSYK Y525/526, pAKT S473, and pERK Y204. Similarly, whole blood was stimulated with 10 ng/mL of IL-2 (JAK1/3-dependent), IL-4 (JAK1/3-dependent), IL-6 (JAK1/TYK2-dependent) or GM-CSF (JAK2-dependent) for 20 minutes, measuring the induction of pSTAT5 Y694 in T-cells and NK cells, the induction of pSTAT6 Y641 in B cells, T-cells, NK cells, and monocytes, the induction of pSTAT3 Y705 in monocytes, B cells, and T-cells, and the induction of pSTAT5 Y694 in monocytes, respectively. […] With blood samples from the CLL patients only, tumor cell surface expression of CD5, CD69, CD86, and CXCR4 pre-dose on days 1 and 28 were monitored. […] For each assay, data were collected using an LSR II instrument (BD Bioscience, San Jose, Calif.) and analyzed using Flowjo software (Flowjo LLC, Ashland, Oreg.). […]
The data were analyzed using the statistical language R and the accessory packages ggplot2 (Wickham, H., Elegant Graphics for Data Analysis. 2016: Springer-Verlag) and drc (Ritz, C., et al., Dose-Response Analysis Using R. PLoS One, 2015. 10(12): p. e0146021). For cell signaling assays, percent inhibition was determined by normalizing the receptor-induced phosphorylation events mean fluorescent intensity (MFI) to that of pre-dose receptor-induced MFI. The resulting relative activities were analyzed by nonlinear regression to a 3-parameter log-logistic function with an upper and lower limit set at 100 and 0%. […] The significance of the relation between maximum tumor response and change in a specific biomarker was evaluated using Spearman-Rank-correlation and p value.

[4] = tested on: PMA-mediated B cell pERK Y204; assay: PMA-mediated B cell pERK Y204; type: cell-based, human; conditions: patient samples
Experimental: The potency and selectivity for target inhibition following oral dosing in patients using a variety of whole blood assays was measured.

## CCS(=O)(=O)N1CCN(c2ccc(Nc3ncc(C(N)=O)c(NC4CC4)n3)cc2)CC1 [cerdulatinib, 4-(cyclopropylamino)-2-((4-(4-(ethylsulfonyl)piperazin-1-yl)phenyl)amino)pyrimidine-5-carboxamide]
[1]
  AUC0−inf Ratio Fed/Fasted: 1.16
  AUC0−inf Ratio PPI/Fasted: 1.06
  Cmax Ratio Fed/Fasted: 1.11
  Cmax Ratio PPI/Fasted: 1.02
[1]; Fasted
  T1/2 Mean: 14.5 h
[1]; blood, Fed (high-fat diet)
  Cmax: 187 ng/mL
  AUC(0-inf): 4060 ng·h/mL
  half-life: 13.6 h
  Tmax: 6 h
[1]; in vivo, Fasted
  Cmax: 168 ng/mL
  AUC(0-inf): 3460 ng·h/mL
[1]; in vivo, PPI (esomaprazole)
  Cmax: 170 ng/mL
  AUC(0-inf): 3680 ng·h/mL
  half-life: 14.5 h
  Tmax: 4 h
[2]; CLL/SLL and FL patients
  serum MIP30, CRP, and VCAM1: significantly reduced
[2]; CLL/SLL patients, reduced at baseline
  MPO and CD40 serum levels: normalized
[2]; FL patients, reduced at baseline
  serum BDNF: normalized
[2]; aggressive lymphomas (DLBCL/MCL)
  inhibition of serum inflammation markers: Limited inhibition
[2]; elevated at baseline, both patient groups
  serum HCC4, IL18, and MIG: unaffected
[3]; po, estimated from PK/PD relationships, whole blood, read-out: IC50, measures of BCR-signaling
  IC50: 330 to 730 nM
[3]; following oral dosing, lower and upper limit confidence intervals for ERK and AKT, read-out: IC50 against BCR signaling
  IC50: 170 to 740 nM
[3]; at tolerated exposures
  inhibition of BCR-induced pSYK Y525/526, pERK Y204 and pAKT S473: High level inhibition
[4]
  inhibition of PMA-mediated B cell pERK Y204: No inhibition
